Data from US20230382924A1, “MODULATORS OF CYSTIC FIBROSIS TRANSMEMBRANE CONDUCTANCE REGULATOR” (VERTEX PHARMACEUTICALS INCORPORATED, priority 2020, published 2023).
Where two headings read alike, the source gives them in different places.

Molecular target: CFTR (Homo sapiens, UniProt P13569)
Assay: Membrane Potential Dye, Enteroid Assay A
Format: cell-based
Conditions: for EC50: read-out: Ent. A EC50
Experimental: Base medium (ADF+++) consisted of Advanced DMEM/Ham's F12, 2 mM Glutamax, 10 mM HEPES, […] penicillin/streptomycin.
Bath 1 Buffer consisted of 1 mM MgCl2, 160 mM NaCl, 4.5 mM KCl, 10 mM HEPES, 10 mM Glucose, 2 mM CaCl2).
Chloride Free Buffer consisted of 1 mM Magnesium Gluconate, 2 mM Calcium Gluconate, 4.5 mM Potassium Gluconate, 160 mM Sodium Gluconate, 10 mM HEPES, 10 mM Glucose.
Bath 1 Dye Solution consisted of Bath 1 Buffer, 0.04% Pluronic F127, 20 μM Methyl Oxonol, 30 μM CaCCinh-A01, 30 μM Chicago Sky Blue.
Chloride Free Dye Solution consisted of Chloride Free Buffer, 0.04% Pluronic F127, 20 μM Methyl Oxonol, 30 μM CaCCinh-A01, 30 μM Chicago Sky Blue.
3. Enteroid Cell Harvesting and Seeding
Cells were recovered in cell recovery solution, collected by centrifugation at 650 rpm for 5 min at 4° C., resuspended in TryPLE and incubated for 5 min at 37° C. Cells were then collected by centrifugation at 650 rpm for 5 min at 4° C. and resuspended in IEMM containing 10 μM ROCK inhibitor (RI).
4. Membrane Potential Dye, Enteroid Assay A
Briefly, cells were washed 5 times in Bath 1 Buffer. Bath 1 Dye Solution was added, and the cells were incubated for 25 min at room temperature. Following dye incubation, cells were washed 3 times in Chloride Free Dye Solution. Chloride transport was initiated by addition of Chloride Free Dye Stimulation Solution and the fluorescence signal was read for 15 min. […] Chloride transport was then expressed as a percentage of the chloride transport following treatment with 3 μM N-[(6-amino-2-pyridyl)sulfonyl]-6-(3-fluoro-5-isobutoxy-phenyl)-2-[(4S)-2,2,4-trimethylpyrrolidin-1-yl]pyridine-3-carboxamide, 3 μM (R)-1-(2,2-difluorobenzo[d][1,3]dioxol-5-yl)-N-(1-(2,3-dihydroxypropyl)-6-fluoro-2-(1-hydroxy-2-methylpropan-2-yl)-1H-indol-5-yl)cyclopropanecarboxamide and 300 nM acute N-[2,4-bis(1,1-dimethylethyl)-5-hydroxyphenyl]-1,4-dihydro-4-oxoquinoline-3-carboxamide triple combination control (% Activity).

Chain of CFTR (P13569 with tags, fused parts or gaps DEL508-508): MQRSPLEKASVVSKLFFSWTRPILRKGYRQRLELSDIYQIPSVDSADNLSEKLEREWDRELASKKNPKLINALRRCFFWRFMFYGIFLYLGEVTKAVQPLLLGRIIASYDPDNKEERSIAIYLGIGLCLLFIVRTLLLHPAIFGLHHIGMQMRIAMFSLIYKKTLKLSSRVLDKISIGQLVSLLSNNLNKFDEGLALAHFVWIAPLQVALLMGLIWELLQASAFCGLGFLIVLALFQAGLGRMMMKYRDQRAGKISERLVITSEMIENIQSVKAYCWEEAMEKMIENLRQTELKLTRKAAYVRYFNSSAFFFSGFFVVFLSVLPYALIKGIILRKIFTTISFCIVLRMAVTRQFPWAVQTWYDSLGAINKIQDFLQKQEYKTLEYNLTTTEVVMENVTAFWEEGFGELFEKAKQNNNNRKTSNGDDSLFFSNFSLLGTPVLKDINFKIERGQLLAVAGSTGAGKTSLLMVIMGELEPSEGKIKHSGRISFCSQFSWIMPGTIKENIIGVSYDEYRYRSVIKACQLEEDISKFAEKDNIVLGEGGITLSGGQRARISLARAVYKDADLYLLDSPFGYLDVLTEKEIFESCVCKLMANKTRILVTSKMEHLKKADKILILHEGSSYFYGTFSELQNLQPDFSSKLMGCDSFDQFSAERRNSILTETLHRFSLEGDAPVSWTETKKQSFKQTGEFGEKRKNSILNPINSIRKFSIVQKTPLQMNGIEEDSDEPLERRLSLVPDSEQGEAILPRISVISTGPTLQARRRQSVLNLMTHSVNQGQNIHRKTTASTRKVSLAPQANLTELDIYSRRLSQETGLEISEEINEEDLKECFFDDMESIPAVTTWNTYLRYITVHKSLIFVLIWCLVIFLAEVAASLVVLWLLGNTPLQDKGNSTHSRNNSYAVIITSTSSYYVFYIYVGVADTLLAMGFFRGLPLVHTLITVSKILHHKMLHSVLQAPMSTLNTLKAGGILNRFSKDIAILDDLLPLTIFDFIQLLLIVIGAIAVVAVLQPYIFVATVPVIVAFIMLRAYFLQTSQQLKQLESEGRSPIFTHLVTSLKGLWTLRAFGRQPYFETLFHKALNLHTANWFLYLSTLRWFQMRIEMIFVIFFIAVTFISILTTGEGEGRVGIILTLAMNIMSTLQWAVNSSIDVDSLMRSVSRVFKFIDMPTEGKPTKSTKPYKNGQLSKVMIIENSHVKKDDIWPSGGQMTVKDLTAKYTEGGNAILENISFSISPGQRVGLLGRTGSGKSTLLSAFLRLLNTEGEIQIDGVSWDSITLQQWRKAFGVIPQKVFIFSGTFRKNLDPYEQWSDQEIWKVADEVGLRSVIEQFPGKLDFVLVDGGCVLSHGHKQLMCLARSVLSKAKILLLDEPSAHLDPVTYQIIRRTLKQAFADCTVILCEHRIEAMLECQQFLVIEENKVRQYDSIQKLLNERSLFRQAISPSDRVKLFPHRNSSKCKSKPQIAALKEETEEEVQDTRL

EC50 (Table 8) [nM]	Ent. A Max Activity (Table 9)	EC50 (Table 9) [nM]	Structure (SMILES)	also measured
< 1000			Cc1cccc(C)c1-c1cc2nc(n1)NS(=O)(=O)c1cccc(c1)C(=O)NCC(Cc1ccc(C(C)(C)C)cc1)O2 (centres unmarked) [Compound 241]	Ent. A Max Activity (Table 8): +++ (+++ is >60%)
< 1000			CCC1CCC(c2cc3nc(n2)NS(=O)(=O)c2cccc(c2)C(=O)N[C@H](CC(C)C)CO3)CC1 (some centres unmarked) [Compound 310]	
	++ (++ is 30-60%)	1000 to 3000	Cc1cccc(C)c1-c1cc2nc(n1)NS(=O)(=O)c1cccc(c1)C(=O)NC[C@@H](c1ccc(C3CC3)cc1)O2 [Compound 261]	
			CC(C)C[C@@H]1COc2cc(-c3ccccc3OCC3CC3)nc(n2)NS(=O)(=O)c2cccc(c2)C(=O)N1 [Compound 344]	Ent. A Max Activity (Enteroid Assay A): ++ (++ is 30-60%); EC50 (Enteroid Assay A): 1000 to 3000 nM
	++ (++ is 30-60%)	< 1000	Cc1cccc(C)c1-c1cc2nc(n1)NS(=O)(=O)c1cccc(c1)C(=O)NC[C@@H](c1ccc(CCC3(C(F)(F)F)CC3)cc1)O2 [Compound 145]	
			Cc1cccc(C)c1-c1cc2nc(n1)NS(=O)(=O)c1cccc(c1)C(=O)NCC(c1cnc(C(C)(C)C)nc1)O2 (centres unmarked) [Compound 285]	Ent. A Max Activity (Table 8): + (+ is <30%)
	+++ (+++ is >60%)	1000 to 3000	Cc1cccc(C)c1-c1cc2nc(n1)NS(=O)(=O)c1cccc(c1)C(=O)NC1(CCN(C3CC4(CC4)C3)CC1)CO2 [Compound 174]	
			COc1cc(C)c(CN2CCC3(CC2)CNC(=O)c2cccc(c2)S(=O)(=O)Nc2nc(cc(-c4c(C)cccc4C)n2)OC3)cc1C [Compound 438]	Ent. A Max Activity (Enteroid Assay A): ++ (++ is 30-60%); EC50 (Enteroid Assay A): 1000 to 3000 nM
			Cc1cccc(C)c1-c1cc2nc(n1)NS(=O)(=O)c1cccc(c1)C(=O)N[C@H]1CCCC[C@H]1O2 [Compound 364]	Ent. A Max Activity (Enteroid Assay A): ++ (++ is 30-60%); EC50 (Enteroid Assay A): 3000 to 30000 nM
			Cc1cccc(C)c1-c1cc2nc(n1)NS(=O)(=O)c1cccc(c1)C(=O)NCC1(CCN(Cc3ccc(NC(=O)OC(C)(C)C)nc3)CC1)CO2 [Compound 433]	Ent. A Max Activity (Enteroid Assay A): ++ (++ is 30-60%); EC50 (Enteroid Assay A): 3000 to 30000 nM
	+ (+ is <30%)	< 1000	Cc1cccc(C)c1-c1cc2nc(n1)NS(=O)(=O)c1cccc(c1)C(=O)NCC(c1ccc(C3CCC3)cc1)O2 (single isomer, unassigned) [Compound 13, 10-(4-Cyclobutylphenyl)-6-(2,6-dimethylphenyl)-2,2-dioxo-9-oxa-2λ^6-thia-3,5,12,19-tetrazatricyclo[12.3.1.14,8]nonadeca-1(18),4(19),5,7,14,16-hexaen-13-one]	
			Cc1cccc(C)c1-c1cc2nc(n1)NS(=O)(=O)c1cccc(c1)C(=O)NCC1(CCN(C(=O)CC(C)(C)C)CC1)CO2 [Compound 481]	Ent. A Max Activity (Enteroid Assay A): ++ (++ is 30-60%)
< 1000			Cc1cccc(C)c1-c1cc2nc(n1)NS(=O)(=O)c1cccc(c1)C(=O)NCC(c1ccc(C#N)cc1)O2 (centres unmarked) [Compound 250]	Ent. A Max Activity (Table 8): +++ (+++ is >60%)
< 1000			Cc1ccccc1C1CNC(=O)c2cccc(c2)S(=O)(=O)Nc2nc(cc(-c3c(C)cccc3C)n2)O1 (centres unmarked) [Compound 279]	Ent. A Max Activity (Table 8): +++ (+++ is >60%)
	+++ (+++ is >60%)	< 1000	Cc1cccc(C)c1-c1cc2nc(n1)NS(=O)(=O)c1cccc(c1)C(=O)N[C@@H]1CCN(Cc3ccccc3)C[C@H]1O2 (stereo in doubt) [Compound 382]	
			CC(C)C[C@@H]1COc2cc(-c3ccccc3C(C)C)nc(n2)NS(=O)(=O)c2cccc(c2)C(=O)N1 [Compound 345]	Ent. A Max Activity (Enteroid Assay A): +++ (+++ is >600%); EC50 (Enteroid Assay A): < 1000 nM
	++ (++ is 30-60%)	< 1000	Cc1cccc(C)c1-c1cc2nc(n1)NS(=O)(=O)c1cccc(c1)C(=O)NCC(C#CC(C)(C)C)O2 (centres unmarked) [Compound 297]	
3000 to 30000			Cc1cccc(C)c1-c1cc2nc(n1)NS(=O)(=O)c1cccc(c1)C(=O)NCC(CN1CCCCC1)O2 (centres unmarked) [Compound 410]	
			Cc1cccc(C)c1-c1cc2nc(n1)NS(=O)(=O)c1cccc(c1)C(=O)NCC1(CCN(CCC(C)(C)C)CC1)CO2 [Compound 443]	Ent. A Max Activity (Enteroid Assay A): ++ (++ is 30-60%)
			CC(C)C[C@@H]1COc2cc(-c3ccccc3)nc(n2)NS(=O)(=O)c2cccc(c2)C(=O)N1 [Compound 340]	Ent. A Max Activity (Enteroid Assay A): ++ (++ is 30-60%); EC50 (Enteroid Assay A): 3000 to 30000 nM
< 1000			Cc1cccc(C)c1-c1cc2cc(n1)NS(=O)(=O)c1cccc(c1)C(=O)N[C@H](CC(C)C)CO2 [Compound 296]	Ent. A Max Activity (Table 8): +++ (+++ is >60%)
3000 to 30000			Cc1cccc(C)c1-c1cc2nc(n1)NS(=O)(=O)c1cccc(c1)CN[C@H](CC1CCCCC1)CO2 [Compound 286]	Ent. A Max Activity (Table 8): + (+ is <30%)
< 1000			Cc1ccc(C2CNC(=O)c3cccc(c3)S(=O)(=O)Nc3nc(cc(-c4c(C)cccc4C)n3)O2)cc1 (centres unmarked) [Compound 407]	Ent. A Max Activity (Table 8): +++ (+++ is >60%)
< 1000			Cc1cccc(C)c1-c1cc2nc(n1)NS(=O)(=O)c1cccc(c1)C(=O)N[C@@H](CC1(C(F)(F)F)CC1)CO2 [Compound 288]	Ent. A Max Activity (Table 8): +++ (+++ is >60%)
	+++ (+++ is >60%)	1000 to 3000	Cc1cccc(C)c1-c1cc2nc(n1)NS(=O)(=O)c1cccc(c1)C(=O)NC1(CCN(CCC(C)(C)C)CC1)CO2 [Compound 86, 1′-(3,3-Dimethylbutyl)-6-(2,6-dimethylphenyl)-2,2-dioxo-spiro[9-oxa-2λ^6-thia-3,5,12,19-tetrazatricyclo[12.3.1.14,8]nonadeca-1(18),4(19),5,7,14,16-hexaene-11,4′-piperidine]-13-one]	
< 1000			Cc1cccc(C)c1-c1cc2nc(n1)NS(=O)(=O)c1cccc(c1)C(=O)NCC(c1ccc3ccccc3c1)O2 (centres unmarked) [Compound 253]	Ent. A Max Activity (Table 8): +++ (+++ is >60%)
	+++ (+++ is >60%)	< 1000	Cc1cccc(C)c1-c1cc2nc(n1)NS(=O)(=O)c1cccc(c1)C(=O)NCC(c1ccc(/C=C/C(C)(C)C)cc1)O2 (centres unmarked) [Compound 23, 10-[4-[(E)-3,3-Dimethylbut-1-enyl]phenyl]-6-(2,6-dimethylphenyl)-2,2-dioxo-9-oxa-2λ^6-thia-3,5,12,19-tetrazatricyclo[12.3.1.14,8]nonadeca-1(18),4(19),5,7,14,16-hexaen-13-one]	
			Cc1cccc(C)c1-c1cc2nc(n1)NS(=O)(=O)c1cccc(c1)CNC1C[C@@H](CN(C(=O)OCc3ccccc3)C1)O2 (stereo in doubt) [Compound 193]	Ent. A Max Activity (Enteroid Assay A): ++ (++ is 30-60%); EC50 (Enteroid Assay A): 1000 to 3000 nM
	+++ (+++ is >60%)	< 1000	Cc1cccc(C)c1-c1cc2nc(n1)NS(=O)(=O)c1cccc(c1)C(=O)NCC(C1CCC(C)(C)CC1)O2 (centres unmarked) [Compound 283]	

Structure (SMILES)	EC50 (Table 8) [nM]	Ent. A Max Activity (Table 9)	EC50 (Table 9) [nM]	also measured
CC(C)C[C@@H]1COc2cc(-c3ccccc3-c3ccccc3)nc(n2)NS(=O)(=O)c2cccc(c2)C(=O)N1 [Compound 101, (11R)-11-Isobutyl-2,2-dioxo-6-(2-phenylphenyl)-9-oxa-2λ^6-thia-3,5,12,19-tetrazatricyclo[12.3.1.14,8]nonadeca-1(18),4,6,8(19),14,16-hexaen-13-one]		+++ (+++ is >60%)	< 1000	
Cc1cccc(C)c1-c1cc2nc(n1)NS(=O)(=O)c1cccc(c1)C(=O)NCC(c1ccc(C[Si](C)(C)C)cc1)O2 (centres unmarked) [Compound 128]			< 1000	
